According to PubChem BioAssay (NCI):
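The compound was tested at five concentrations on cells cultured in 96-well plates, with a 48-hour exposure period. Definition used: TGI = concentration required for complete inhibition of growth.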

Legend:
Assay in all cases: DTP human tumour cell line panel, 48 h
786-0 renal = tested on: 786-0 renal
A498 renal = tested on: A498 renal
A549 NSCLC = tested on: A549 NSCLC
CAKI-1 renal = tested on: CAKI-1 renal
CCRF-CEM leukemia = tested on: CCRF-CEM leukemia
COLO 205 colon = tested on: COLO 205 colon
DLD-1 colon = tested on: DLD-1 colon
DMS 114 small cell lung = tested on: DMS 114 small cell lung
DMS 273 small cell lung = tested on: DMS 273 small cell lung
EKVX NSCLC = tested on: EKVX NSCLC
HCT-116 colon = tested on: HCT-116 colon
HCT-15 colon = tested on: HCT-15 colon
HL-60(TB) leukemia = tested on: HL-60(TB) leukemia
HOP-18 NSCLC = tested on: HOP-18 NSCLC
HOP-62 NSCLC = tested on: HOP-62 NSCLC
HOP-92 NSCLC = tested on: HOP-92 NSCLC
HT29 colon = tested on: HT29 colon
IGROV1 ovarian = tested on: IGROV1 ovarian
K-562 leukemia = tested on: K-562 leukemia
KM12 colon = tested on: KM12 colon
KM20L2 colon = tested on: KM20L2 colon
LOX IMVI melanoma = tested on: LOX IMVI melanoma
LXFL 529 NSCLC = tested on: LXFL 529 NSCLC
M14 melanoma = tested on: M14 melanoma
M19-MEL melanoma = tested on: M19-MEL melanoma
MALME-3M melanoma = tested on: MALME-3M melanoma
MOLT-4 leukemia = tested on: MOLT-4 leukemia
NCI-H226 lung = tested on: NCI-H226 lung
NCI-H23 lung = tested on: NCI-H23 lung
NCI-H460 lung = tested on: NCI-H460 lung
NCI-H522 lung = tested on: NCI-H522 lung
OVCAR-3 ovarian = tested on: OVCAR-3 ovarian
OVCAR-4 ovarian = tested on: OVCAR-4 ovarian
OVCAR-5 ovarian = tested on: OVCAR-5 ovarian
OVCAR-8 ovarian = tested on: OVCAR-8 ovarian
RPMI-8226 leukemia = tested on: RPMI-8226 leukemia
RXF 393 renal = tested on: RXF 393 renal
RXF-631 renal = tested on: RXF-631 renal
SF-268 CNS = tested on: SF-268 CNS
SF-295 CNS = tested on: SF-295 CNS
SF-539 CNS = tested on: SF-539 CNS
SK-MEL-2 melanoma = tested on: SK-MEL-2 melanoma
SK-MEL-5 melanoma = tested on: SK-MEL-5 melanoma
SK-OV-3 ovarian = tested on: SK-OV-3 ovarian
SN12C renal = tested on: SN12C renal
SNB-19 CNS = tested on: SNB-19 CNS
SNB-75 CNS = tested on: SNB-75 CNS
SR leukemia = tested on: SR leukemia
SW-620 colon = tested on: SW-620 colon
TK-10 renal = tested on: TK-10 renal
U251 CNS = tested on: U251 CNS
UACC-257 melanoma = tested on: UACC-257 melanoma
UACC-62 melanoma = tested on: UACC-62 melanoma
UO-31 renal = tested on: UO-31 renal
XF 498 CNS = tested on: XF 498 CNS
ACHN renal = tested on: ACHN renal
HCC-2998 colon = tested on: HCC-2998 colon
SK-MEL-28 melanoma = tested on: SK-MEL-28 melanoma
SNB-78 CNS = tested on: SNB-78 CNS

Molecule `O=C1C(c2ccccc2)=C(c2ccccc2)C(c2ccc(-c3ccc(C4=C(c5ccccc5)C(=O)C(c5ccccc5)=C4c4ccccc4)cc3)cc2)=C1c1ccccc1` has a TGI (786-0 renal) of over 100 µM, a TGI (A498 renal) of over 100 µM and a TGI (A549 NSCLC) of over 100 µM. It also gave a TGI (CAKI-1 renal) of over 100 µM, a TGI (CCRF-CEM leukemia) of over 100 µM and a TGI (COLO 205 colon) of over 100 µM. It also gave a TGI (DLD-1 colon) of over 100 µM, a TGI (DMS 114 small cell lung) of over 100 µM and a TGI (DMS 273 small cell lung) of over 100 µM. The TGI (EKVX NSCLC) was over 100 µM, the TGI (HCT-116 colon) was over 100 µM and the TGI (HCT-15 colon) was over 100 µM. For the same molecule, the TGI (HL-60(TB) leukemia) was over 100 µM, the TGI (HOP-18 NSCLC) was over 100 µM and the TGI (HOP-62 NSCLC) was over 100 µM. The TGI (HOP-92 NSCLC) was over 100 µM, the TGI (HT29 colon) was over 100 µM and the TGI (IGROV1 ovarian) was over 100 µM. The TGI (K-562 leukemia) was over 100 µM, the TGI (KM12 colon) was over 100 µM and the TGI (KM20L2 colon) was over 100 µM. It also gave a TGI (LOX IMVI melanoma) of over 100 µM, a TGI (LXFL 529 NSCLC) of over 100 µM and a TGI (M14 melanoma) of over 100 µM. For the same molecule, the TGI (M19-MEL melanoma) was over 100 µM, the TGI (MALME-3M melanoma) was over 100 µM and the TGI (MOLT-4 leukemia) was over 100 µM. The TGI (NCI-H226 lung) was over 100 µM, the TGI (NCI-H23 lung) was over 100 µM and the TGI (NCI-H460 lung) was over 100 µM. It also gave a TGI (NCI-H522 lung) of over 100 µM, a TGI (OVCAR-3 ovarian) of over 100 µM and a TGI (OVCAR-4 ovarian) of over 100 µM. For the same molecule, the TGI (OVCAR-5 ovarian) was over 100 µM, the TGI (OVCAR-8 ovarian) was over 100 µM and the TGI (RPMI-8226 leukemia) was over 100 µM. For the same molecule, the TGI (RXF 393 renal) was over 100 µM, the TGI (RXF-631 renal) was over 100 µM and the TGI (SF-268 CNS) was over 100 µM. The TGI (SF-295 CNS) was over 100 µM, the TGI (SF-539 CNS) was over 100 µM and the TGI (SK-MEL-2 melanoma) was over 100 µM. The TGI (SK-MEL-5 melanoma) was over 100 µM, the TGI (SK-OV-3 ovarian) was over 100 µM and the TGI (SN12C renal) was over 100 µM. It also gave a TGI (SNB-19 CNS) of over 100 µM, a TGI (SNB-75 CNS) of over 100 µM and a TGI (SR leukemia) of over 100 µM. The TGI (SW-620 colon) was over 100 µM, the TGI (TK-10 renal) was over 100 µM and the TGI (U251 CNS) was over 100 µM. For the same molecule, the TGI (UACC-257 melanoma) was over 100 µM, the TGI (UACC-62 melanoma) was over 100 µM and the TGI (UO-31 renal) was over 100 µM. For the same molecule, the TGI (XF 498 CNS) was over 100 µM.

In the case of `COC(=O)C12C3C4C1C1C2C3C41C(=O)O` (stereo not drawn), the TGI (786-0 renal) is reported as over 100 µM, the TGI (A498 renal) is reported as over 100 µM and the TGI (A549 NSCLC) is reported as over 100 µM. For the same molecule, the TGI (ACHN renal) was over 100 µM, the TGI (CAKI-1 renal) was over 100 µM and the TGI (CCRF-CEM leukemia) was over 100 µM. For the same molecule, the TGI (COLO 205 colon) was over 100 µM, the TGI (DLD-1 colon) was over 100 µM and the TGI (DMS 114 small cell lung) was over 100 µM. The TGI (EKVX NSCLC) was over 100 µM, the TGI (HCC-2998 colon) was over 100 µM and the TGI (HCT-15 colon) was over 100 µM. For the same molecule, the TGI (HL-60(TB) leukemia) was over 100 µM, the TGI (HOP-18 NSCLC) was over 100 µM and the TGI (HOP-62 NSCLC) was over 100 µM. It also gave a TGI (HOP-92 NSCLC) of over 100 µM, a TGI (HT29 colon) of over 100 µM and a TGI (IGROV1 ovarian) of over 100 µM. The TGI (K-562 leukemia) was over 100 µM, the TGI (KM20L2 colon) was over 100 µM and the TGI (LXFL 529 NSCLC) was over 100 µM. For the same molecule, the TGI (M14 melanoma) was over 100 µM, the TGI (M19-MEL melanoma) was over 100 µM and the TGI (MALME-3M melanoma) was over 100 µM. It also gave a TGI (MOLT-4 leukemia) of over 100 µM, a TGI (NCI-H226 lung) of over 100 µM and a TGI (NCI-H23 lung) of over 100 µM. For the same molecule, the TGI (NCI-H460 lung) was over 100 µM, the TGI (OVCAR-3 ovarian) was over 100 µM and the TGI (OVCAR-4 ovarian) was over 100 µM. It also gave a TGI (OVCAR-5 ovarian) of over 100 µM, a TGI (OVCAR-8 ovarian) of over 100 µM and a TGI (RPMI-8226 leukemia) of over 100 µM. It also gave a TGI (RXF 393 renal) of over 100 µM, a TGI (RXF-631 renal) of over 100 µM and a TGI (SF-268 CNS) of over 100 µM. It also gave a TGI (SF-295 CNS) of over 100 µM, a TGI (SF-539 CNS) of over 100 µM and a TGI (SK-MEL-28 melanoma) of over 100 µM. The TGI (SK-MEL-5 melanoma) was over 100 µM, the TGI (SK-OV-3 ovarian) was over 100 µM and the TGI (SN12C renal) was over 100 µM. The TGI (SNB-19 CNS) was over 100 µM, the TGI (SNB-78 CNS) was over 100 µM and the TGI (SW-620 colon) was over 100 µM. For the same molecule, the TGI (TK-10 renal) was over 100 µM, the TGI (U251 CNS) was over 100 µM and the TGI (UACC-257 melanoma) was over 100 µM. For the same molecule, the TGI (UACC-62 melanoma) was over 100 µM, the TGI (UO-31 renal) was over 100 µM and the TGI (XF 498 CNS) was over 100 µM.

Molecule `CC1(C)CC(=O)C(C(=O)C(=O)NC2=C(Cl)C(=O)c3ccccc3C2=O)C(=O)C1` has a TGI (786-0 renal) of over 100 µM, a TGI (A498 renal) of over 100 µM and a TGI (A549 NSCLC) of over 100 µM. The TGI (ACHN renal) was over 100 µM, the TGI (CAKI-1 renal) was over 100 µM and the TGI (CCRF-CEM leukemia) was over 100 µM. For the same molecule, the TGI (COLO 205 colon) was over 100 µM, the TGI (DLD-1 colon) was over 100 µM and the TGI (DMS 114 small cell lung) was over 100 µM. For the same molecule, the TGI (EKVX NSCLC) was over 100 µM, the TGI (HCC-2998 colon) was over 100 µM and the TGI (HCT-116 colon) was over 100 µM. The TGI (HCT-15 colon) was over 100 µM, the TGI (HL-60(TB) leukemia) was 47.2 µM and the TGI (HOP-18 NSCLC) was over 100 µM. For the same molecule, the TGI (HOP-62 NSCLC) was over 100 µM, the TGI (HT29 colon) was over 100 µM and the TGI (IGROV1 ovarian) was over 100 µM. It also gave a TGI (K-562 leukemia) of over 100 µM, a TGI (KM12 colon) of over 100 µM and a TGI (KM20L2 colon) of over 100 µM. The TGI (LOX IMVI melanoma) was over 100 µM, the TGI (LXFL 529 NSCLC) was over 100 µM and the TGI (M14 melanoma) was over 100 µM. The TGI (M19-MEL melanoma) was over 100 µM, the TGI (MALME-3M melanoma) was over 100 µM and the TGI (MOLT-4 leukemia) was 94.4 µM. It also gave a TGI (NCI-H226 lung) of over 100 µM, a TGI (NCI-H23 lung) of over 100 µM and a TGI (NCI-H460 lung) of over 100 µM. For the same molecule, the TGI (NCI-H522 lung) was 91.6 µM, the TGI (OVCAR-3 ovarian) was over 100 µM and the TGI (OVCAR-4 ovarian) was over 100 µM. The TGI (OVCAR-5 ovarian) was over 100 µM, the TGI (OVCAR-8 ovarian) was over 100 µM and the TGI (RPMI-8226 leukemia) was over 100 µM. The TGI (RXF 393 renal) was over 100 µM, the TGI (RXF-631 renal) was over 100 µM and the TGI (SF-268 CNS) was over 100 µM. The TGI (SF-295 CNS) was over 100 µM, the TGI (SF-539 CNS) was over 100 µM and the TGI (SK-MEL-2 melanoma) was over 100 µM. For the same molecule, the TGI (SK-MEL-28 melanoma) was over 100 µM, the TGI (SK-MEL-5 melanoma) was over 100 µM and the TGI (SK-OV-3 ovarian) was over 100 µM. The TGI (SN12C renal) was over 100 µM, the TGI (SNB-19 CNS) was over 100 µM and the TGI (SNB-75 CNS) was over 100 µM. It also gave a TGI (SNB-78 CNS) of over 100 µM, a TGI (SR leukemia) of over 100 µM and a TGI (SW-620 colon) of over 100 µM. It also gave a TGI (TK-10 renal) of over 100 µM, a TGI (U251 CNS) of over 100 µM and a TGI (UACC-257 melanoma) of over 100 µM. The TGI (UACC-62 melanoma) was over 100 µM, the TGI (UO-31 renal) was over 100 µM and the TGI (XF 498 CNS) was over 100 µM.
